# Columns and labels:
# [1] = Toxicity, single oral administration using rats; format: in vivo
# Protocol: The toxicity of the compounds of the present invention is very low and therefore, the compounds may be considered safe for pharmaceutical use. For example, the minimal lethal dose by single oral administration of N-hydroxy-5-ethoxymethyloxy-2(S)-methyl-4(S)-(4-phenoxybenzoyl)aminopentanamide using rats was 2000 mg/kg.
# [2] = test system: blood vessel smooth muscle cells; assay: Effect to inhibit migration of blood vessel smooth muscle cells (histone H1 (+) cells), hamster blood vessel stricture model; format: in vivo; conditions: oral, twice a day, 20 mg/kg/day; 3, 5 and 7th days after carotid injury; in comparison with the control group
# Protocol: (§1) Preparation of Hamster Blood Vessel Stricture Model
# (§2) Male hamsters (Gold, SLC, Japan; 40 to 50 g) were allowed to feed on 0.5% cholesterol feed for 4 weeks to increase the LDL value to 4 to 6 times higher than that of normal hamsters. Each hamster was anesthetized with pentobarbital (50 mg/kg), and its carotid inner membrane was peeled using 2FG catheter (Portex) whose tip had been roughly shaved.
# (3) Effect to Inhibit Migration of Blood Vessel Smooth Muscle Cells
# Administration of the drug to be tested and BrdU was carried out in the same manner in the above (2).
# The injured blood vessels were taken out from the hamsters on 3, 5 and 7th days after the carotid injury. Each blood vessel was washed with PBS and put into 0.3% hydrogen peroxide/cold methanol solution. The sample was incubated for 45 minutes in 5% goat serum diluted with 1% BSA-containing PBS to prevent nonselective linkage of protein. This was incubated for 60 minutes in 1% BSA-containing PBS using a histone H1 monoclonal antibody. Thereafter, each section was incubated for 45 minutes using 1% goat anti-mouse IgG antibody diluted with 1% BSA-containing PBS. By measuring the number of histone H1 (+) cells (cells/mm^2), migration of smooth muscle cells from intermediate membrane to inner membrane was evaluated.
# [3] = test system: blood vessel smooth muscle cells; assay: Effect to inhibit growth of blood vessel smooth muscle cells (BrdU labeling index), hamster blood vessel stricture model; format: in vivo; conditions: oral, twice a day, 20 mg/kg/day; 7th day after the injury
# Protocol: as §1, §2
# (2) Effect to Inhibit Growth of Blood Vessel Smooth Muscle Cells
# The drug to be tested, N-hydroxy-5-ethoxymethyloxy-2(S)-methyl-4(S)-(4-phenoxybenzoyl)aminopentaneamide represented by the above formula (II), was orally administered once before the blood vessel inner membrane injury, and then it was orally administered twice a day (20 mg/kg/day). 5-Bromo-2-deoxy-uridine (BrdU: 50 mg/kg) was injected by subcutaneous injection 1, 8, 16 or 24 hours before taking out the inner membrane-injured carotid from each hamster.
# After the carotid injury, the injured blood vessels were taken out on the 1st and 7th days to prepare frozen samples. BrdU positive cells were stained with a mouse monoclonal antibody (SIGMA) and then with a peroxidase-conjugated goat anti-mouse IgG antibody and detected with diaminobenzidine (DAB). […] The BrdU labeling index of intermediate membrane and newly formed inner membrane was calculated by the following formula: [formula]
# smooth muscle cells = conditions: literature report; cited from earlier work
SMILES,minimal lethal dose [1] [mg/kg],number of smooth muscle cells on the surface of inner membrane (migration; histone H1 (+) cells) [2],inhibition of growth of blood vessel smooth muscle cells (BrdU labeling index) [3],growth of smooth muscle cells (smooth muscle cells),migration of smooth muscle cells (smooth muscle cells)
"CCOCOC[C@H](C[C@H](C)C(=O)NO)NC(=O)c1ccc(Oc2ccccc2)cc1 [formula (II), N-hydroxy-5-ethoxymethyloxy-2(S)-methyl-4(S)-(4-phenoxybenzoyl)aminopentaneamide]",2000,significantly reduced,significantly inhibited,,
"CNC(=O)[C@H](Cc1ccccc1)NC(=O)[C@H](CC(C)C)[C@H](CSc1cccs1)C(=O)NO [BB94, 3(S)-(N-hydroxycarbamoyl)-2(R)-isobutyl-4-(2-thienylthio)butynyl-L-phenylalanine methylamide]",,,,inhibits migration and growth of smooth muscle cells dose-dependently,inhibits migration and growth of smooth muscle cells dose-dependently
"CNC(=O)[C@H](Cc1c[nH]c2ccccc12)NC(=O)[C@H](CC(=O)NO)CC(C)C [GM6001, 3-(N-hydroxycarbamoyl)-2(S)-isobutylpropionyl-L-tryptophan methylamide]",,,,,inhibits migration of smooth muscle cells

# — patent publication US20040068015A1, “Remedies for diseases due to stenotic lesions of blood vessel” (priority 2003, published 2004)
